The target in assay [1] is Disintegrin and metalloproteinase domain-containing protein 17 (Homo sapiens, UniProt P78536). Kind of assay: Inhibition of recombinant human ADAM17 after 30 mins using FS-6 as substrate by fluorometry.
Assay [2] deals with Thermolysin (Bacillus thermoproteolyticus) (UniProt P00800). Briefly: Inhibition of Bacillus thermoproteolyticus thermolysin pretreated with compound for 15 mins followed by the addition of Abz-Ala-Gly-leu-Ala-p-nitrobenzalamide as substrate by spectrofluorometry.
Assay [3] deals with T1, Thermolysin (Bacillus thermoproteolyticus, UniProt P00800).
T1 sequence (P00800 whole entry): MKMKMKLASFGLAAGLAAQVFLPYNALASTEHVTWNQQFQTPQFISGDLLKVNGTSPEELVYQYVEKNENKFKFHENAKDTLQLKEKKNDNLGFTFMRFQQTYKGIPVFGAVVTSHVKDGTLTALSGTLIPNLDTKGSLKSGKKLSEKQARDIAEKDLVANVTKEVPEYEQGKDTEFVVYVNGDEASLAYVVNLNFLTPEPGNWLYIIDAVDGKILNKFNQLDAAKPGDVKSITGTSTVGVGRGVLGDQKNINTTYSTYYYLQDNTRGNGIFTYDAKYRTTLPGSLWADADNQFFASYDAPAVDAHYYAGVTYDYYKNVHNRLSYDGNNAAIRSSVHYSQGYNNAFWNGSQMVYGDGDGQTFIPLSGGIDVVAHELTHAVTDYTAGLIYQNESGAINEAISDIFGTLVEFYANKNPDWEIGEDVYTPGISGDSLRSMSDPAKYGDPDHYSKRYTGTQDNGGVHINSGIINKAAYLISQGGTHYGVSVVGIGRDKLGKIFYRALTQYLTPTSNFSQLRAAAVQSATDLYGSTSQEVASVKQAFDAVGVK
Kind of assay: Inhibition of Bacillus thermoproteolyticus thermolysin pretreated with compound for 1 hr followed by the addition of 3.33 uM bradykinin like substrate by spectrofluorometry assay.

Assay [4] addresses Elastase (Pseudomonas aeruginosa (strain ATCC 15692 / PAO1 / 1C / PRS 101 / LMG12228), UniProt P14756). Kind of assay: Inhibition of Pseudomonas aeruginosa pseudolysin pretreated with compound for 1 hr followed by the addition of 1.73 uM bradykinin like substrate by spectrofluorometry.
The target of assay [5] is Matrix metalloproteinase-9 (Homo sapiens, UniProt P14780). Kind of assay: Inhibition of recombinant human MMP9 after 2 hrs using FS-6 as substrate by fluorometry.
Chain of Matrix metalloproteinase-9 (P14780 whole entry): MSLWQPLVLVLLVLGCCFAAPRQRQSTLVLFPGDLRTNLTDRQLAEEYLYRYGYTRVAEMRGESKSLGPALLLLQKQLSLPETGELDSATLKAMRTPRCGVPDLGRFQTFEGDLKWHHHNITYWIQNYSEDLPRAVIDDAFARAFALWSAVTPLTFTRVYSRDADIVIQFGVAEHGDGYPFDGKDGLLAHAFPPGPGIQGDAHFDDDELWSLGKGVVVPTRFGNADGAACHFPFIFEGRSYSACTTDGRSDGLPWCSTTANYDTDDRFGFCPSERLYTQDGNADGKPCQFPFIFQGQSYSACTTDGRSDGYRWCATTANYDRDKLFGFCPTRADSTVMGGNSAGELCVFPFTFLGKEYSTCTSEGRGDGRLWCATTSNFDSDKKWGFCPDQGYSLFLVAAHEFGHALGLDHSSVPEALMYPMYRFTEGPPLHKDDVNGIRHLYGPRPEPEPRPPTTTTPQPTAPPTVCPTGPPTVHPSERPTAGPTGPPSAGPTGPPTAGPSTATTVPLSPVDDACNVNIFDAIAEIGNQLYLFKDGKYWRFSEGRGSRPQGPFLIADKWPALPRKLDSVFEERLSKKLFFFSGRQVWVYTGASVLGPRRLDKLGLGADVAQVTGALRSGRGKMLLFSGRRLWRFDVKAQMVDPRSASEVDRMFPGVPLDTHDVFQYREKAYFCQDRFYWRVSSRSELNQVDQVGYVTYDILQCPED
Assay [6] deals with 72 kDa type IV collagenase (Homo sapiens, UniProt P08253). Briefly: Inhibition of recombinant human MMP2 after 2 hrs using FS-6 as substrate by fluorometry.
Chain of 72 kDa type IV collagenase (P08253 whole entry): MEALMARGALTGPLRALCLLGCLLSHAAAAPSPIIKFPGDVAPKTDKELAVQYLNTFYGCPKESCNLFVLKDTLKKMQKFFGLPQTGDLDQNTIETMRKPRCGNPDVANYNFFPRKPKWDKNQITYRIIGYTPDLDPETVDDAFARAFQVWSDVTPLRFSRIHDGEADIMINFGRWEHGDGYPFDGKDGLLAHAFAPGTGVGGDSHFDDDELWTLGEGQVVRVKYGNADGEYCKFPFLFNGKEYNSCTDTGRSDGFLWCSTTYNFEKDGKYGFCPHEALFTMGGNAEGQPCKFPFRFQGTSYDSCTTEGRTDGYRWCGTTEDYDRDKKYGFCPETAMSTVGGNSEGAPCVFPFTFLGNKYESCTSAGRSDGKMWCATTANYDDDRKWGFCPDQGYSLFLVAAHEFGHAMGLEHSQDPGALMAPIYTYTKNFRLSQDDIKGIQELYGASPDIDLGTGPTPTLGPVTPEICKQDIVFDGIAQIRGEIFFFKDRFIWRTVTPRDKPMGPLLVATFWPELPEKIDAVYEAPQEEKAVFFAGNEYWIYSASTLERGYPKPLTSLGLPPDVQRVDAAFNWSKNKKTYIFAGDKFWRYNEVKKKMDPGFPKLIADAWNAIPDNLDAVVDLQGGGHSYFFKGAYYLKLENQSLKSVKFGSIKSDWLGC
The target of assay [7] is T1, Thermolysin. Briefly: Inhibition of Bacillus thermoproteolyticus thermolysin pretreated with compound for 15 mins followed by the addition of 75 uM Abz-Ala-Gly-leu-Ala-p-nitrobenzalamide as substrate by spectrofluorometry.

Here are results for 10 molecules from ChEMBL document CHEMBL3751806, “Synthesis, experimental evaluation and molecular modelling of hydroxamate derivatives as zinc metalloproteinase inhibitors” (Eur J Med Chem, 2016).

A value given as a limit tells only on which side of the number the result lay.

Chain of Disintegrin and metalloproteinase domain-containing protein 17 (P78536 whole entry, the tested form may be a part): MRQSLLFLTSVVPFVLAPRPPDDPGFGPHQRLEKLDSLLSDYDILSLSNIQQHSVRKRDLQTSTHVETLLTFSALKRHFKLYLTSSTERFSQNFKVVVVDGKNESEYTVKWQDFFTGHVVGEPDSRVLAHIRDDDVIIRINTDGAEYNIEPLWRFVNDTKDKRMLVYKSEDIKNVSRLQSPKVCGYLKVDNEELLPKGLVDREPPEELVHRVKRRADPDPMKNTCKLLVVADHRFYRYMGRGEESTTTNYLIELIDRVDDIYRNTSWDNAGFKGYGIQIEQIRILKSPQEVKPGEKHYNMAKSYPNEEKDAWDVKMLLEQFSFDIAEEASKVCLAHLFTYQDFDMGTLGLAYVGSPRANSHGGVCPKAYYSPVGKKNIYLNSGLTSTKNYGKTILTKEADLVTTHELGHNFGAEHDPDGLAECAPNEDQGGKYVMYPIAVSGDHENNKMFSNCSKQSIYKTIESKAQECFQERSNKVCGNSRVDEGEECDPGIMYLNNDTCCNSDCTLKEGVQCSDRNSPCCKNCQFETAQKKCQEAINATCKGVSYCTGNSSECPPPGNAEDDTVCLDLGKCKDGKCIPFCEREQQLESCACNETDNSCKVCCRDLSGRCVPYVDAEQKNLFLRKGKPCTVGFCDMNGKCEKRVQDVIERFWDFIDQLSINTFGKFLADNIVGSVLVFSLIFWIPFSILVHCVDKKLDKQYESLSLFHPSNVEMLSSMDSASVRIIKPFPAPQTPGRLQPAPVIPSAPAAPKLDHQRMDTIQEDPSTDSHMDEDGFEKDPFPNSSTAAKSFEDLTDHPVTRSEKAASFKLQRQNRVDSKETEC
Chain of Elastase (P14756 whole entry): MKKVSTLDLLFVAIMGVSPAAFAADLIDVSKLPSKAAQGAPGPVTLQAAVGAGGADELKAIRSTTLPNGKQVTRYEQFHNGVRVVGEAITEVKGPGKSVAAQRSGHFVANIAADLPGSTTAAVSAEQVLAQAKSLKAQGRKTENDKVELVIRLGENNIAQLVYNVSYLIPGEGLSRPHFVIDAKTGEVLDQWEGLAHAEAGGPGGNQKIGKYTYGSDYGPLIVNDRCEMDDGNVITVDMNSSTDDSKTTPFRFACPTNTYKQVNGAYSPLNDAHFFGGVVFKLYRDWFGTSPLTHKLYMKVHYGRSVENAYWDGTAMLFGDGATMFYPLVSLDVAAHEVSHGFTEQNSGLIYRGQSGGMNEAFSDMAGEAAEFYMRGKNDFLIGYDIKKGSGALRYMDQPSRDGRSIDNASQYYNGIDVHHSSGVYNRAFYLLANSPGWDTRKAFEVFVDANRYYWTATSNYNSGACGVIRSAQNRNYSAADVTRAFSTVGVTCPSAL

One may read the IC50 as the concentration that gives 50% inhibition. For `CC(C)ON([C@@H](C(=O)NO)C(C)C)S(=O)(=O)c1ccc(-c2ccccc2)cc1`, the IC50 in assay [1] is 14 µM.
Consider `COc1ccc(S(=O)(=O)c2ccccc2CC(=O)NO)cc1`, for which the IC50 in assay [2] was determined as 17 µM; in assay [3], 146 µM; in assay [1] it was 67 µM; in assay [4], 29 µM.
Take `O=C(N[C@H](CCN1C(=O)c2ccccc2C1=O)C(=O)NO)c1ccc(Oc2ccccc2)cc1`: the IC50 came to 16 µM in assay [2], 8.2 µM in assay [5], 9 µM in assay [6] and 9.5 µM in assay [1].
Take `CC(C)CN([C@@H](C(=O)NO)C(C)C)S(=O)(=O)c1ccc(-c2ccccc2)cc1`: the IC50 in assay [5] was determined as 0.0053 µM; in assay [6] it was 0.003 µM.
With `O=C(CCNS(=O)(=O)c1ccc(-c2ccccc2)cc1)NO`, the IC50 came out at 30 µM in assay [7]; 30 µM in assay [2]; 26 µM in assay [5]; 2.4 µM in assay [6]; 30 µM in assay [3]; 79 µM in assay [4].
Consider `CC(C)ON(CC(=O)NO)S(=O)(=O)c1ccc(Br)s1`, for which the IC50 amounted to 29 µM in assay [7]; 3.3 µM in assay [2]; 6.2 µM in assay [5]; 1.1 µM in assay [6]; 29 µM in assay [3]; 114 µM in assay [1]. In addition, the IC50 in assay [4] came out at 31 µM.
As for `COc1ccc(S(=O)(=O)N(CC(C)C)[C@@H](C(=O)NO)C(C)C)cc1`, the IC50 in assay [2] worked out at 103 µM.
For `O=C(Cc1ccccc1S(=O)(=O)c1ccc(OCCCN2C(=O)c3ccccc3C2=O)cc1)NO`, the IC50 is 7 µM in assay [2]; above 10 µM in assay [5]; above 10 µM in assay [6]; 132 µM in assay [3]; 150 µM in assay [1]; 38 µM in assay [4].
As to `COc1ccc(S(=O)(=O)N(CC(=O)NO)OC23CC4CC(CC(C4)C2)C3)cc1`, the IC50 in assay [5] and in assay [6] was 2 µM throughout.
For the molecule `CCCCC(NOCc1ccccc1)C(=O)NO` (configuration not stated), the IC50 in assay [2] was 1.1 µM; in assay [3], 9.5 µM; in assay [1], 100 µM; in assay [4] it was 1.9 µM.
